{"source": "patent US12427143B2", "about": "“Pharmaceutical composition for treating or preventing aging or age-related diseases” (INU RESEARCH & BUSINESS FOUNDATION, priority 2021, dated 2025)", "key": {"senescent HDF [1]": {"tested_on": "senescent HDF", "assay": "Autophagy level (Cyto-ID flow cytometry)", "type": "cell-based, human", "conditions": "HDF treated with compound", "method": "(§1) FIG. 5 depicts the result of recovery of mitochondria based on the increased production of ATP. (A and B) Flow cytometric analysis of mitochondrial ROS and mitochondrial mass analysis using Mito tracker Green and MitoSOX; (C and D) measurement of non-glycotic glycolysis level and glycotic glycolysis level; (E) flow cytometry analysis of autophagosome level using CYTO-ID Green assay.\nCells were incubated in medium containing 20 μM chloroquine (CQ; C6628, Sigma-Aldrich). At 24 h after incubation, cells were further stained with Cyto-ID staining solution and 50 nM LTDR (ENZ-51031-0050; ENZO, Lausen, Switzeland) for 30 min and prepared for FACS analysis. To measure background autofluorescence, cells were incubated in medium without dye. Fluorescence from Cyto-ID was normalized with fluorescence from LTDR. Autophagic flux was calculated using the following equation: ΔMFI Cyto-ID=MFI Cyto-ID (+CQ)/MFI Cyto-ID (−CQ).\n(§2) The capability of removing organelles having dysfunction in senescent cells is deteriorated. Recovery of autophagy prevents accumulation of dysfunctional mitochondria and resulting in signs of senescence recovery. Mitochondrial mass and autophagy were measured for identifying the function. Mitochondrial mass decreased in HDF treated with KB1541(FIG. 5B). Moreover, autophagy level increased in HDF treated with KB1541(FIG. 5C)."}, "[2]": {"tested_on": "senescent HDF mitochondria", "assay": "Transmission electron microscopy of mitochondrial cristae", "type": "cell-based, human", "description": "FIG. 6 depicts the result of mitochondria recovery induced by KB1541. (A) HDF mitochondria observed in transmission electron microscope 21 days after treated with KB1541. From left: Senescent (DMSO), Senescent (KB1541); (B) the length of cristae observed in transmission electron microscope.\nThe inventors studied level to cristae of mitochondria 12 days after senescent HDF treatment and identified senescence recovery. […] In graph where the images were quantified and represented, the length of cristae increased when treated with KB1541(FIG. 6B)."}, "[3]": {"biological_target": "T1, Myc-14-3-3 zeta/delta (S58A) / ATP synthase alpha and beta (Homo sapiens, UniProt P63104, S58A)", "T1 construct": "expressed in transfected cells; host or cells: HEK293T (CRL-11268; ATCC)", "T1 sequence (P63104 1-245 S58A)": "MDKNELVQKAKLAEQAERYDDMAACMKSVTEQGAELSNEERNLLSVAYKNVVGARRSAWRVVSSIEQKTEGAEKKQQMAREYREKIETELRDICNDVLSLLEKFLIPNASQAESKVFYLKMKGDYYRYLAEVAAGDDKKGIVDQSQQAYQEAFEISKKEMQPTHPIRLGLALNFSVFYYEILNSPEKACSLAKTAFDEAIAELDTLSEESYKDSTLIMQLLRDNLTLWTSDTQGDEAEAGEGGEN", "assay": "Co-immunoprecipitation of ATP synthase alpha and beta with Myc-14-3-3 zeta/delta(S58A)", "type": "cell-based", "conditions": "HEK293T, performed in the same way (4 μM)", "method": "(§3) pCMV-Myc-14-3-3 zeta/delta(WT) plasmid and pCMV-Myc-14-3-3 zeta/delta(S58A) plasmid were transfected with HEK293T(CRL-11268; ATCC). […] The treated cells were digested with 0.1% NP-40 cell lysis buffer to destroy cells, and IP (immunoprecipitation) of MIC60 subunit was performed using AccuNanoBeadm Streptavidin Magnetic Nanobeads (TA-1015-1; Bioneer, Daejeon, Korea). IP of 14-3-3 zeta/delta(WT) and 14-3-3 zeta/delta(S58A) were performed using anti-Myc tag antibody.\n(§4) The PCR fragment of 14-3-3 zeta/delta (WT) and 14-3-3 zeta/delta (S58A) were separately cloned into pCMV-Myc-puromycin. HEK293T (CRL-11268; ATCC) were transfected with Lipofectaminem 2000 Transfection Reagent (11668-019; Thermo Scientific), Selection was carried out with puromycin 3 μg/ml.\n(§5) Therefore, the 58th serine region of 14-3-3 zeta/delta was mutated to alanine to investigate its function. Myc-tag 14-3-3 zeta/delta(WT) vector and 14-3-3 zeta/delta(S58A) vector were transfected and overexpressed with HEK293T. Additionally, their interactions with endogenous ATP synthase alpha and beta were confirmed by IP (FIG. 4B).\n(§6) As a result, ATP synthase alpha and beta proteins, which interacted with Myc-14-3-3 zeta/delta(WT) were increased KB1541 was treated to HEK293T at a concentration of 4 μM (FIG. 5B)."}, "senescent HDF [4]": {"tested_on": "senescent HDF", "assay": "Mitochondrial ROS by MitoSOX flow cytometry", "type": "cell-based, human", "conditions": "versus senescent HDF", "method": "as §1\n(§7) For quantification of mitochondrial ROS, the cells were incubated in medium containing 5 μM MitoSOX (M36008; Life Technologies, Carlsbad, CA, USA) for 30 min at 37° C. For quantification of mitochondrial mass, the cells were incubated in medium containing 50 nM MitoTracker green (M22426; Life Technologies) for 30 min at 37° C. After staining, for the purpose of measuring mitochondrial membrane potential, cells were prepared for FACS analysis.\nReactive oxygen species (ROS) was identified and measured, which damages homeostasis and metabolism of normal mitochondria."}, "senescent HDF cells": {"tested_on": "senescent HDF cells", "assay": "Compound screening: cell proliferation of senescent fibroblasts (GelGreen fluorescence)", "type": "cell-based, human", "conditions": "27 drugs at 4 μM, 12 days, senescent HDF 1,000 cells per well", "method": "FIG. 1 depicts the results of potential target screening for recovering senescence. Each of compounds was treated to a 96 well plate seeded with 1000 senescent cells (4 μM). After incubation for 12 days, the cells were stained with Gel green solution (1:1,000 in D.W.). Cell number was determined via fluorescence measurement using fluorescence microplate reader (excitation/emission 485 nm/535 nm).\nSenescent fibroblasts were grown in 96-well plates at a density of 1,000 cells per well. Components from the library were diluted to a final concentration of 4 μM and added to the wells every 4 days. 12 days after drug treatment, cells were washed twice with phosphate-buffered saline (PBS) and lysed in 50 μl of 0.2% SDS. The plates were incubated at 37° C. for 1 h. GelGreen® Nucleic Acid Gel Stain (150 μl) (1:1,000 in DW; 41005; Biotium, Fremont, CA, USA) was added to the wells. Cell number was determined by measuring fluorescence intensity with VICTOR Multilabel Plate Reader (2030-0050; PerkinElmer, Waltham, MA, USA). The mean and standard deviation from six replicates were determined for each of experimental groups.\nCellular senescence is characterized by cell cycle arrest, and the inventors identified a compound recovering cell cycle arrest with additional anti-senescence effects. […] Relative cell proliferation was measured in terms of the senescent HDF. […]"}, "[5]": {"biological_target": "T2, Myc-14-3-3 zeta/delta(WT) / ATP synthase alpha and beta (Homo sapiens, UniProt P63104)", "T2 construct": "expressed in transfected cells; host or cells: HEK293T (CRL-11268; ATCC)", "T2 sequence (P63104 1-245)": "T1 sequence (P63104 1-245 S58A) with A58S", "assay": "Co-immunoprecipitation of ATP synthase alpha and beta with Myc-14-3-3 zeta/delta(WT)", "type": "cell-based", "conditions": "HEK293T, 4 μM", "method": "as §3, §4, §5, §6"}, "senescent HDF [6]": {"tested_on": "senescent HDF", "assay": "Mitochondrial mass by MitoTracker green flow cytometry", "type": "cell-based, human", "conditions": "HDF treated with compound", "method": "as §1, §7, §2"}, "senescent HDF [7]": {"tested_on": "senescent HDF", "assay": "Seahorse analysis, ECAR (dependency of glycolysis)", "type": "cell-based, human", "conditions": "HDF treated with compound, regardless of glucose", "description": "as §1\nThe XFe24 flux analyzer (Seahorse Bioscience XFe24 Instrument) was used according to the manufacturer's protocol. Briefly, 5×10^4 cells were distributed into each well of an XFe24 cell-culture plate from the XF24 FluxPak (100850-001; Seahorse Bioscience, North Billerica, MA, USA) and then cultured in a 5% CO2 incubator at a temperature of 37° C. for 16 h. Next, the medium was replaced by XF Assay medium (102365-100; Seahorse Bioscience), which lacked glucose, and the cells were then cultured for another 1 h in the same incubator. The extracellular acidification rate (ECAR) was measured using an XF Glycolysis Stress Test kit (102194-100; Seahorse Bioscience). ECAR was reported in mpH/min. As a metabolic shifter, aconitase inhibitor deferiprone (379409-5G; Sigma-Aldrich) was used.\nLastly, dependency of glycolysis was measured via ECAR.\nDependency of glycolysis in HDF treated with KB1541 decreased regardless of glucose like ATP study (FIGS. 5D and E)."}, "senescent HDF [8]": {"tested_on": "senescent HDF", "assay": "Measurement of cellular ATP levels (oxphos and glycolysis portion)", "type": "cell-based, human", "conditions": "versus senescent HDF", "method": "Cells were incubated in medium with or without 20 μM oligomycin for 24 h and then lysed with lysis buffer. ATP content was measured using a ViaLight Plus Kit (LT07-221; Lonza, Basel, Switzerland) according to the manufacturer's instructions. DNA content was measured using AccuBlue broad range dsDNA quantitation kit (31007; Biotium, Fremont, CA, USA). For measurements of relative ATP content, the luminescence of each sample was normalized to the DNA content.\nThe inventors studied the changes in ATP production when assembling the ATP subunit based on the result of FIG. 4B. Oxphos portion was measured for identifying ATP resulting from oxidative phosphorylation in mitochondria cristae (FIG. 4C).\nMoreover, glycolysis portion was measured for assessing the amount of ATP during glycolysis (FIG. 4D)."}}, "note": "Positions count from the first letter of the chain named.", "data": [{"smiles": "FC(F)(F)c1ccc(-c2nc3c(N4CCCC4)nc4ccccc4c3o2)cc1", "note": "[KB1541]", "values": [{"measurement": "Autophagy level", "setting": "senescent HDF [1]", "result": "increased"}, {"measurement": "Folds (cristae) of mitochondria in electron microscope images", "setting": "[2]; 12 days after treatment", "result": "restored as well as increased"}, {"measurement": "Length of cristae", "setting": "[2]; quantified TEM images", "result": "increased"}, {"measurement": "ATP synthase alpha and beta proteins interacting with Myc-14-3-3 zeta/delta (S58A)", "setting": "[3]", "result": "did not change significantly"}, {"measurement": "Reactive oxygen species (mitochondrial ROS)", "setting": "senescent HDF [4]", "result": "decreased in half"}, {"measurement": "Relative cell proliferation, rank among screened compounds", "setting": "senescent HDF cells", "result": "most effective compound on cell proliferation"}, {"measurement": "ATP synthase alpha and beta proteins interacting with Myc-14-3-3 zeta/delta(WT)", "setting": "[5]", "result": "increased"}, {"measurement": "Mitochondrial mass", "setting": "senescent HDF [6]", "result": "decreased"}, {"measurement": "Dependency of glycolysis (ECAR)", "setting": "senescent HDF [7]", "result": "decreased"}, {"measurement": "Glycolysis portion of ATP production", "setting": "senescent HDF [8]", "result": "reduced compared to senescent HDF"}, {"measurement": "Oxphos portion of ATP production", "setting": "senescent HDF [8]", "result": "higher than senescent HDF"}]}]}
